Assays:
Experiment in all cases: viability relative to DMSO control (fraction); higher = less drug effect (more viable cells)
Conditions in all cases: 48 h
[1] = system: primary AML patient cells (S089)
In short: (§1)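 Viability was measured as CellTiter-Glo luminescence relative to the median of 16 inner DMSO wells. Primary mononuclear tumour cells, fresh or cryopreserved, were Ficoll-isolated from blood or bone marrow or taken from processed lymph node. They were seeded at 4 × 10^4 cells per well into 384-well plates holding pre-plated compounds at five concentrations, one well each, and kept in RPMI-1640 with penicillin/streptomycin, L-glutamine and human serum at 37 °C and 5% CO2 for 48 h.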

[2] = system: primary MCL patient cells (S068)
In short: as §1

[3] = system: primary AML patient cells (S017)
In short: as §1

[4] = system: primary AML patient cells (S085)
In short: as §1

[5] = system: primary AML patient cells (S091)
In short: as §1

[6] = system: primary AML patient cells (S019)
In short: as §1

[7] = system: primary CLL patient cells (S031)
In short: as §1

[8] = system: primary BL patient cells (S005)
In short: as §1

[9] = system: primary MCL patient cells (S053)
In short: as §1

[10] = system: primary AML patient cells (S037)
In short: as §1

[11] = system: primary AML patient cells (S079)
In short: as §1

[12] = system: primary AML patient cells (S025)
In short: as §1

[13] = system: primary AML patient cells (S012)
In short: as §1

[14] = system: primary AML patient cells (S002)
In short: as §1

[15] = system: primary AML patient cells (S072)
In short: as §1

[16] = system: primary AML patient cells (S056)
In short: as §1

[17] = system: primary FL patient cells (S022)
In short: as §1

[18] = system: primary ALL patient cells (S048)
In short: as §1

[19] = system: primary AML patient cells (S071)
In short: as §1

[20] = system: primary CLL patient cells (S043)
In short: as §1

## CC(C)c1cc(-c2n[nH]c(=O)n2-c2ccc3c(ccn3C)c2)c(O)cc1O [Ganetespib]
[1]; 0.0032 µM
  viability: 0.692
[1]; 0.016 µM
  viability: 0.371
[1]; 0.08 µM
  viability: 0.182
[1]; 0.4 µM
  viability: 0.254
[1]; 2 µM
  viability: 0.215
[2]; 0.0032 µM
  viability: 1.02
[2]; 0.016 µM
  viability: 1.13
[2]; 0.08 µM
  viability: 0.532
[2]; 0.4 µM
  viability: 0.535
[2]; 2 µM
  viability: 0.545
[3]; 0.0032 µM
  viability: 1.07
[3]; 0.016 µM
  viability: 0.996
[3]; 0.08 µM
  viability: 0.371
[3]; 0.4 µM
  viability: 0.326
[3]; 2 µM
  viability: 0.31
[4]; 0.0032 µM
  viability: 0.973
[4]; 0.016 µM
  viability: 0.648
[4]; 0.08 µM
  viability: 0.195
[4]; 0.4 µM
  viability: 0.251
[4]; 2 µM
  viability: 0.264
[5]; 0.0032 µM
  viability: 0.926
[5]; 0.016 µM
  viability: 0.901
[5]; 0.08 µM
  viability: 0.364
[5]; 0.4 µM
  viability: 0.259
[5]; 2 µM
  viability: 0.26
[6]; 0.0032 µM
  viability: 0.923
[6]; 0.016 µM
  viability: 0.682
[6]; 0.08 µM
  viability: 0.411
[6]; 0.4 µM
  viability: 0.465
[6]; 2 µM
  viability: 0.444
[7]; 0.0032 µM
  viability: 0.998
[7]; 0.016 µM
  viability: 0.873
[7]; 0.08 µM
  viability: 0.324
[7]; 0.4 µM
  viability: 0.267
[7]; 2 µM
  viability: 0.256
[8]; 0.0032 µM
  viability: 0.871
[8]; 0.016 µM
  viability: 0.871
[8]; 0.08 µM
  viability: 0.637
[8]; 0.4 µM
  viability: 0.725
[8]; 2 µM
  viability: 0.716
[9]; 0.0032 µM
  viability: 0.941
[9]; 0.016 µM
  viability: 0.809
[9]; 0.08 µM
  viability: 0.326
[9]; 0.4 µM
  viability: 0.332
[9]; 2 µM
  viability: 0.325
[10]; 0.0032 µM
  viability: 0.976
[10]; 0.016 µM
  viability: 0.988
[10]; 0.08 µM
  viability: 0.947
[10]; 0.4 µM
  viability: 0.979
[10]; 2 µM
  viability: 0.937
[11]; 0.0032 µM
  viability: 0.983
[11]; 0.016 µM
  viability: 0.825
[11]; 0.08 µM
  viability: 0.398
[11]; 0.4 µM
  viability: 0.352
[11]; 2 µM
  viability: 0.332
[12]; 0.0032 µM
  viability: 0.936
[12]; 0.016 µM
  viability: 0.579
[12]; 0.08 µM
  viability: 0.343
[12]; 0.4 µM
  viability: 0.334
[13]; 0.0032 µM
  viability: 0.991
[13]; 0.016 µM
  viability: 0.964
[13]; 0.08 µM
  viability: 0.131
[13]; 0.4 µM
  viability: 0.126
[13]; 2 µM
  viability: 0.121
[14]; 0.0032 µM
  viability: 0.957
[14]; 0.016 µM
  viability: 0.414
[14]; 0.08 µM
  viability: 0.328
[14]; 0.4 µM
  viability: 0.326
[14]; 2 µM
  viability: 0.323
[15]; 0.0032 µM
  viability: 1.01
[15]; 0.016 µM
  viability: 0.884
[15]; 0.08 µM
  viability: 0.412
[15]; 0.4 µM
  viability: 0.39
[15]; 2 µM
  viability: 0.377
[16]; 0.0032 µM
  viability: 0.705
[16]; 0.016 µM
  viability: 0.203
[16]; 0.08 µM
  viability: 0.137
[16]; 0.4 µM
  viability: 0.176
[16]; 2 µM
  viability: 0.169
[17]; 0.0032 µM
  viability: 0.919
[17]; 0.016 µM
  viability: 0.865
[17]; 0.08 µM
  viability: 0.833
[17]; 0.4 µM
  viability: 0.764
[17]; 2 µM
  viability: 0.727
[18]; 0.0032 µM
  viability: 0.9
[18]; 0.016 µM
  viability: 0.632
[18]; 0.08 µM
  viability: 0.517
[18]; 0.4 µM
  viability: 0.48
[18]; 2 µM
  viability: 0.453
[19]; 0.0032 µM
  viability: 0.892
[19]; 0.016 µM
  viability: 0.357
[19]; 0.08 µM
  viability: 0.142
[19]; 0.4 µM
  viability: 0.167
[19]; 2 µM
  viability: 0.164
[20]; 0.0032 µM
  viability: 0.928
[20]; 0.016 µM
  viability: 0.917
[20]; 0.08 µM
  viability: 0.637
[20]; 0.4 µM
  viability: 0.535
[20]; 2 µM
  viability: 0.521

Source: the supplement of paper PMC10733146
